Assay results as given in patent US5405857A, “3-substituted 1,2,3,4,-oxatriazole-5-imine compounds, a process for the preparation thereof and a pharmaceutical preparation containing said compounds” (A/S GEA Farmaceutisk Fabrik, priority 1991, dated 1995).
Where a name gives a salt, the structure may show the parent alone. Read-outs that look alike come from different tables or passages of the source.

What was measured:
blood platelets = assay: Inhibition of blood platelet aggregation (aggregometer, ADP); type: cell-based, human (healthy testees); conditions: Platelet, 0.05 h; human PRP, ADP 2 to 4 μM, 3 min incubation, 37° C.; read-out: IC50 (Inhibition of blood platelet aggregation)
Experimental: Compounds according to the invention were tested for their inhibition of clumping together (aggregation) of blood platelets (thrombocytes), which is the first phase of the formation of blood clots (thrombi). Such an inhibition may prevent the formation of blood clots and inhibit the development of new thrombi after a diagnosed thrombus.
Citrate stabilized ( 0.38% of sodium citrate, final concentration) venous blood from healthy testees is used, who have not used medicine for at least 8 days. Slight centrifugation (160×g for 10 minutes) results in PRP (blood plasma rich in platelets) which is pipetted. PPP (blood plasma poor in platelets) is obtained by an intense centrifugation (3000×g for 10 minutes) of the remaining blood. The light transmission is measured by the aggregometer (CHRONOLOG). PRP allows nearly no light transmitaaion, while PPP allows complete transmission of light. The PRP is placed in the aggregometer at 37° C. while being stirred by a magnet. Addition of a pro-aggregating substance causes the PRP to aggregate gradually and an increasing light transmission takes place at the same time. At complete aggregation a light transmission corresponding to PPP is obtained. Adnosine diphosphate (ADP) is used as pro-aggregating substance, said substance representing a basic biochemical mechanism for aggregation of blood platelets. The test substances are incubated for 3 minutes in PRP placed in the aggregometer at 37° C. during magnetic stirring. A predetermined positively aggregating dosage of adenosine diphosphate (ADP) (2 to 4 μM) is then added. […] A so-called IC50 -value (that is the concentration inhibiting the aggregation by 50% relative to the control aggregation) is calculated for each test substance by linear regression analysis (log concentration μM as constant ad abscissa and % inhibition as variable ad ordinate). The following known reference substances have been used: nitroglycerine (GTN), sodium nitroprusside (NNP) and SIN-1 (the active metabolite of molsidomine).

[1] = molecular target: T1, soluble guanylate cyclase (Homo sapiens, UniProt Q02153); assay: Stimulation of guanylate cyclase from blood platelets (RIA); type: biochemical; conditions: 37° C.
T1 construct: The guanylate cyclase activity in the supernatant after incubation with and without the test substance; endogenous in cells; host or cells: human blood platelets, supernatant of homogenate
T1 sequence (Q02153 1-619): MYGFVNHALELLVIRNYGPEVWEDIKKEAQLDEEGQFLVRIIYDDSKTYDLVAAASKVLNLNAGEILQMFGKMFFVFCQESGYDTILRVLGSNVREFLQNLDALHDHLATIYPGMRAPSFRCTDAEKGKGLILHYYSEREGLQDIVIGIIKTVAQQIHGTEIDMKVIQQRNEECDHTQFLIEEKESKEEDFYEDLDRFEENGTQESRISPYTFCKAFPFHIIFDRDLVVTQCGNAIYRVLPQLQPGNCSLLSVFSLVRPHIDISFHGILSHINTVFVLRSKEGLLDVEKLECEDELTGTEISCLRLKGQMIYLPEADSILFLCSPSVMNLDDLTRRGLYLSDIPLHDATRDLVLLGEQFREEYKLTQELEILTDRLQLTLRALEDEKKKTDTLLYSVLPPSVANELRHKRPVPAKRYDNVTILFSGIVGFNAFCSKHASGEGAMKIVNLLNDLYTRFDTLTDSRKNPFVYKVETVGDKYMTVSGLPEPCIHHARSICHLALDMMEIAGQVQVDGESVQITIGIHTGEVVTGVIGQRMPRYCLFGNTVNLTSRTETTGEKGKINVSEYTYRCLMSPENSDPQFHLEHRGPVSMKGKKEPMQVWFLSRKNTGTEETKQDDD
T1 sequence (Q02108 1-690 partner): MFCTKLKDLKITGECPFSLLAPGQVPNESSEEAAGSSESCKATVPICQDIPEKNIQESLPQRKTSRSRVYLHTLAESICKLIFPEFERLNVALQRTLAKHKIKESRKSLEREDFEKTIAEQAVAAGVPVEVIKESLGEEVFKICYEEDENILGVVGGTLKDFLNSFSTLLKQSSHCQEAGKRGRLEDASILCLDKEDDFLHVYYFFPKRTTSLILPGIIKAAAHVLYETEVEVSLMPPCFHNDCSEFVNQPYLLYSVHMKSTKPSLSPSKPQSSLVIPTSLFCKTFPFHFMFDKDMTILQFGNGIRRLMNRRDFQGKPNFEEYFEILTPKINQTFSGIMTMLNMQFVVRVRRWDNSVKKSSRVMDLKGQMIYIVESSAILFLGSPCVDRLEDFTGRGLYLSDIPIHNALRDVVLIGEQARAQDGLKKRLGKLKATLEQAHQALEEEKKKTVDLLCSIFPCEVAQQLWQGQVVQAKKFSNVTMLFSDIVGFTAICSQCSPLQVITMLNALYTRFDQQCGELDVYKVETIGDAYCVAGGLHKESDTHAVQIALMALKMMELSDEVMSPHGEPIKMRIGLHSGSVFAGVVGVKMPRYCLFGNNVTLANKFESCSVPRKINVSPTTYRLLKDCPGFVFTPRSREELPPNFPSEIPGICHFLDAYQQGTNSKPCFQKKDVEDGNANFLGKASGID

pre-contracted trachea = assay: Relaxation of pre-contracted isolated trachea; set-up: species or system guinea pig; conditions: Cavia porcellus; carbamylcholine 0.3 μM, Krebs buffer, 37° C.
Experimental: Compounds according to the invention were tested for their ability to relax a pre-contracted trachea. A contraction of the respiratory passages in combination with a swelling of the mucuos membrane therein presents a vital factor at asthmatic conditions. Relaxation or dilation of the contracted respiratory passages will improve the asthmatic condition.
An isolated trachea from a guinea pig is used. After preparation of a strip which has maintained the circular musculature, the organ is divided into two parts of equal size. The two tracheal strips are suspended in their respective organ bath and connected to a transducer recording the contraction and relaxation of the organ by means of a recorder. The two tracheal strips are continuously bathed in a Krebs buffer at 37° C., constantly bubbled with carbogen (95% O2 and 5% CO2). After an equilibration time of about 3 hours the organs are tested for their sensitivity (contractility) to carbamylcholin a bolus being added directly to the bath (0.3 μM). If the contraction is satisfactory, the organs are transferred to the Krebs buffer containing the same concentration of carbamylcholine. The organs are now constantly exposed to the carbamylcholine and slowly develop a permanent contraction ("asthma"). The test substances are in bolus form added directly to the organ bath. After maximum effect (relaxation) the substances are removed by washing out and the tracheal strip reverts to its permanent contraction state. […] An EC50 -value (that is the concentration relaxing the organ by 50% relative to the maximum relaxation) is calculated for each test substance by means of a linear regression analysis (log concentration (μM) as a constant ad abscissa and % relaxation as variable ad ordinate). Sodium nitroprusside (NNP) and SIN-1 are used as reference substances.

[2] = tested on: polymorph nuclear leukocytes (PMNs), c-GMP; assay: Stimulation of c-GMP content in PMNs; type: cell-based, human; conditions: 37° C., 10 minutes
Experimental: (§1) Compounds according to the invention were tested for their ability to increase the content of cyclic guanosine monophosphate (c-GMP), to inhibit the synthesis of the leukotriene B4 (LTB4), and to inhibit the chemotactical movement of polymorph nuclear leukocytes (PMN). The polymorph nuclear leukocytes play a vital part in the cellular part of the inflammation process. At diseases, such as asthma, the mucuos membrane of the respiratory passages is swollen as a result of an inflammation with a significant infiltration of polymorph nuclear leukocytes (PMN's) in particular. Particularly effective substances for the treatment of asthma are such which in addition to relaxing the musculature in the respiratory passages also have an anti-inflammatory effect on the cellular phase of the inflammatory process, that is inhibiting the leukocyte function.
(§2) Isolated human PMNs are incubated at 37° C. for 10 minutes, whereafter the content of cyclic guanosine monophosphate (c-GMP) is measured. Further, the synthesis of the LTB4 is determined after stimulation with Ca-ionophore (A23187) and the chemotaxis (controlled movement) towards FMLP (a substance attracting the polymorph nuclear leukocytes, PMNs) is determined.
Three compounds according to the invention and the reference substance SIN-1 were tested for their ability to stimulate the content of cyclic guanosine monophosphate (c-GMP).

[3] = tested on: polymorph nuclear leukocytes (PMNs); assay: Inhibition of PMN chemotaxis towards FMLP; type: cell-based, human
Experimental: as §1, §2

[4] = tested on: polymorph nuclear leukocytes (PMNs), LTB4 synthesis; assay: Inhibition of leukotriene B4 synthesis in PMNs after Ca-ionophore (A23187); type: cell-based, human
Experimental: as §1, §2

LD50 test, intravenous = assay: LD50 test, intravenous; set-up: species or system mice; conditions: mouse, in vivo, single injection, read-out: LD50 with 95% confidence limits
Experimental: (§3) Two tests were carried out on male rats, namely a determination of the "maximum tolerable dose" (MTD) and a test using multiple peroral doses. In addition, a LD50 test was carried out intravenously on mice.
(According to Litchfield and Wileoxon, J. Pharmacol. Exp. Therap. 96, 99-113, 1949).
The intravenous LD50 -value was determined after one single injection of different doses of the compound prepared in Example 4.

PAI-1 = assay: Inhibition of plasminogen activator inhibitor (PAI-1) from blood platelets (fibrinolytic activity); type: cell-based, human; conditions: 50 μM, 60 minutes; for % Inhibition of PAI-1 activity: compared to control; for PAI-1 activity: human PRP, control 3.24
Experimental: Compounds according to the invention were tested for their inhibition of plasminogen activator inhibitor (PAI). An established thrombus comprises aggregated platelets cohered by fibrin. The organism has a fibrinolyric system for maintaining normal physiological conditions. Endogenous plasminogen is activated to plasmin (fibrinolysin, that is a proteolytic enzyme decomposing fibrin) by means of a tissue plasminogen activator (t-PA). The platelets include the enzyme PAI-1 inhibiting the activation of plasminogen to plasmin, and thus also the decomposition of fibrin.
A general stimulation of the fibrinolytic system can cause serious hemostatic side effects (haemorrhages). A specific inhibition of PAI-1 induces an increased fibrinolysis in areas with many platelets, which is exactly the case in thrombi. As a result a thrombolytic effect is obtained.
Human PRP prepared by slight centrifugation as previously mentioned is used, but at a low temperature (4° C.). By incubation of PRP (1 ml in a plastic tube) during a slight shaking at 37° C. the PAI-1 activity is liberated, said PAI-1 activity being measured spectrophotometrically by means of a two-step procedure using commercial kits (Spectrolyse™/fibrin kit from BIOPOOL, Sweden).
The PAI-1 activity of the control PRP and PRP incubated with each of 6 compounds according to the invention and the reference substance sodium niroprusside (NNP) (50 μM of each for 60 minutes) appear from Table 6.

male rats = conditions: rat, in vivo, po, 20 mg/kg
Experimental: as §3
At this test the substances were administered perorally in a dose of 20 mg per kg. as solutions or suspensions once a day for 5 days to groups of 5 animals. Clinical observations were made every day and the above hematological parameters were measured on the third day of the test.

| Structure (SMILES) | IC50 (blood platelets) | Guanylate cyclase activity ([1]; 0.01 μM) | Guanylate cyclase activity ([1]; 10 μm (so in the source)) | EC50 (pre-contracted trachea) | further results |
| --- | --- | --- | --- | --- | --- |
| [NH-]c1c[n+](N2CCOCC2)no1 [SIN-1, reference compound] | 3900 nM | 0 pmole c-GMP/mg prot. × 15 minutes | 59733 pmole c-GMP/mg prot. × 15 minutes | 18300 nM | c-GMP in PMNs ([2]; 1 μM): 32 fmole/10^6 cells; c-GMP in PMNs ([2]; 10 μM): 220 fmole/10^6 cells; c-GMP in PMNs ([2]; 100 μM): 473 fmole/10^6 cells; Inhibition of PMN chemotaxis (in words) [3]: also able to inhibit these leukocyte functions, but only when used in higher concentrations; Inhibition of leukotriene B4 synthesis (in words) [4]: also able to inhibit these leukocyte functions, but only when used in higher concentrations |
| [NH-]c1n[n+](-c2ccc(C(F)(F)F)cc2)no1 [Example 4] | – | – | – | – | LD50 (LD50 test, intravenous; female mice): 81 mg/kg; LD50 (LD50 test, intravenous; male mice): 89 mg/kg |
| CC(=O)Oc1ccccc1C(=O)[N-]c1n[n+](-c2cccc(Cl)c2C)no1 [Example 38] | 200 nM | 1024 pmole c-GMP/mg prot. × 15 minutes | 82100 pmole c-GMP/mg prot. × 15 minutes | 3200 nM | Clinical observations (male rats): N.R.; Hematological parameters (male rats): N.R.; Side effects (in words) (male rats): no side effects |
| Cc1c(Cl)cccc1-[n+]1noc([NH-])n1 [Example 29, 3-(3-chloro-2-methylphenyl)-1,2,3,4-oxatriazole-5-imine] | – | 4407 pmole c-GMP/mg prot. × 15 minutes | 61900 pmole c-GMP/mg prot. × 15 minutes | 800 nM | c-GMP in PMNs ([2]; 1 μM): 209 fmole/10^6 cells; c-GMP in PMNs ([2]; 10 μM): 859 fmole/10^6 cells; c-GMP in PMNs ([2]; 100 μM): 1044 fmole/10^6 cells; % Inhibition of PAI-1 activity (PAI-1): 39%; PAI-1 activity (PAI-1): 1.97 U/10^8 platelets |

More lines, main results first:

| IC50 (blood platelets) | Guanylate cyclase activity ([1]; 0.01 μM) | Guanylate cyclase activity ([1]; 10 μm (so in the source)) | EC50 (pre-contracted trachea) | Structure (SMILES) | further results |
| --- | --- | --- | --- | --- | --- |
| 200 nM | 7642 pmole c-GMP/mg prot. × 15 minutes | 48126 pmole c-GMP/mg prot. × 15 minutes | 1100 nM | Cc1cc(Cl)ccc1-[n+]1noc([NH-])n1 [Example 13, 3-(4-chloro-2-methylphenyl)-1,2,3,4-oxatriazole-5-imine hydrochloride] | – |
| – | – | – | 5200 nM | COc1ccc(CCNC(=O)[N-]c2n[n+](-c3cccc(Cl)c3C)no2)cc1OC [Example 47a, 3-(3-chloro-2-methylphenyl)-1,2,3,4-oxatriazole-5-(N-3,4-dimethoxyphenylethylcarbamoyl)imine] | – |
| – | – | – | 4900 nM | Cc1cccc(C)c1-[n+]1noc([NH-])n1 [Example 12] | % Inhibition of PAI-1 activity (PAI-1): 37%; PAI-1 activity (PAI-1): 2.04 U/10^8 platelets |
| – | 8139 pmole c-GMP/mg prot. × 15 minutes | 18693 pmole c-GMP/mg prot. × 15 minutes | 600 nM | Cc1c(Cl)cccc1-[n+]1noc([N-]C(=O)c2cccnc2)n1 [Example 54] | – |
